Laboratory results from patent US11649222B2, “Compounds” (UNIVERSITETET I OSLO, priority 2016, dated 2023).
Counter-ions that a name gives are not always drawn. Like-named read-outs stand apart in the source and are kept apart here.

Tests used:
[1] = test system: K. pneumoniae K66-45 (NDM-1); assay: Microbroth dilution MIC of carbapenem with/without inhibitor; assay type: cell-based
Method: (§1) • Plate bacterial strain(s) on appropriate media: • Gram-negative bacteria with ESBLs or carbapenemases: green agar plates with 100 mg/L ampicillin • Gram-negative bacteria without β-lactamases: green agar plates • Gram-positive bacteria (Staphylococci and Enterococci): blood agar plates • Incubate o.n. at 37° C. […] (Should be used within 15 min of preparation). • Dilute the 0.5 McFarland suspension 1:100 into MH broth. […] Plate 10 μl of the dilution on MH agar plates (×2). Incubate o.n. at 37° C., count the colonies and calculate the final CFU/ml inoculum in the plate by multiplying the average number of colonies with 10000 and divide by 2. The final inoculum should be between 3-7×10^5 CFU/ml. • Add 50 μl of the prepared bacterial suspension to each well in the microtiter plate except negative growth control. Preparation of Compounds/Antibiotics • Calculate the desired concentration-range and volume of the compounds/antibiotics in the assay. […] Dilute the stock solution in MH broth. Make subsequent 2-fold dilutions in MH broth of the desired concentrations if a concentration range is to be tested (remember the extra dilution factor in the assay plate). Always include extra volume for pipetting. Take into consideration stock solutions that are made in buffers that have an effect on bacterial growth (e.g. DMSO).

human hepG2 cells = assay: In vitro toxicity in human hepG2 cells (AlamarBlue viability); assay type: cell-based
Method in brief: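 HepG2 cells at 20,000/well adhered overnight, then were exposed to compounds at 1 to 1×10^−6 mM (DMSO ≤1%) for 24 h at 37 °C. Viability was read with AlamarBlue (10% final) after a further 4 h at 37 °C.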

C. freundii (NDM) = assay: Microbroth dilution MIC of meropenem ± 25 mg/L inhibitor; assay type: cell-based
Method: (§2) • Plate bacterial strain(s) on appropriate media: • Gram-negative bacteria with ESBLs or carbapenemases: green agar plates with 100 mg/L ampicillin • Gram-negative bacteria without β-lactamases: green agar plates • Gram-positive bacteria (Staphylococci and Enterococci): blood agar plates • Incubate o.n. at 37° C. Day 2: Prepare the Bacterial Inoculum: • Prepare a 0.5 McFarland suspension of bacteria in 0.85% NaCl. (Should be used within 15 min of preparation). • Dilute the 0.5 McFarland suspension 1:100 into MH broth. Check the inoculum by diluting the prepared bacterial suspension 1:100 (10 μl bacterial suspension+990 μl 0.85% NaCl). Plate 10 μl of the dilution on MH agar plates (×2). Incubate o.n. at 37° C., count the colonies and calculate the final CFU/ml inoculum in the plate by multiplying the average number of colonies with 10000 and divide by 2. The final inoculum should be between 3-7×10^5 CFU/ml. • Add 50 μl of the prepared bacterial suspension to each well in the microtiter plate except negative growth control. Preparation of Compounds/Antibiotics • Calculate the desired concentration-range and volume of the compounds/antibiotics in the assay. […] Dilute the stock solution in MH broth. Make subsequent 2-fold dilutions in MH broth of the desired concentrations if a concentration range is to be tested (remember the extra dilution factor in the assay plate). Always include extra volume for pipetting. Take into consideration stock solutions that are made in buffers that have an effect on bacterial growth (e.g. DMSO).

C. freundii (NDM-1) = assay: as above; assay type: cell-based
Method: as §2

E. cloacae (VIM) = assay: as above; assay type: cell-based
Method: as §2

E. coli (VIM-1) = assay: as above; assay type: cell-based
Method: as §2

K. pneumoniae (NDM) = assay: as above; assay type: cell-based; details: K. pneumoniae NDM (several strains)
Method: as §2

K. pneumoniae (NDM-7) = assay: as above; assay type: cell-based
Method: as §2

K. pneumoniae (VIM) = assay: as above; assay type: cell-based
Method: as §2

[2] = test system: M. morganii (OXA48+ NDM-1); assay: as above; assay type: cell-based
Method: as §2

P. mirabilis (NDM-1) = assay: as above; assay type: cell-based
Method: as §2

P. stuartii (NDM) = assay: as above; assay type: cell-based
Method: as §2

P. stuartii (NDM-1) = assay: as above; assay type: cell-based
Method: as §2

K. pneumoniae K66-45 = assay type: cell-based; details: inhibitor 25 mg/L; MEM 1 mg/L
Method: After plating and grown overnight at 37° C., only single colonies, ignoring any touching the edges of the plate, were counted.
10^9 CFU K66-45 (Mueller-Hinton broth, no selection) was plated and grown overnight, 37° C. Only single colonies, ignoring any touching the edges of the plate, were counted.

[3] = Solution stability on storage, measured indirectly by MIC; assay type: physicochemical; details: solution stored at 2-8° C.; MIC at 25 mg/L inhibitor
Source text: P. aeruginosa harboring VIM-2 and K. pneumonia bearing NDM-1 was used as two indicator strains.

[4] = In vivo toxicity in healthy mice; parameters: species or system Balb/c mice; details: ± SEM
Method: Female Balb/c mice (4 weeks old, approximately 20 g, Charles River, L'Arbresle, France) acclimatized 4 days in the animal facility before initiation of experiments. […] Individual weights were followed four days a week. Relative weight was calculated as the ratio between the weight of the day and the weight of the first day. The protocol for experiments in mice was approved by the University of Lyon Animal Ethics Committee. Toxicity experiments were performed by Antineo (www.antineo.fr).

[5] = test system: P. aeruginosa K34-7 (VIM-2); assay: Microbroth dilution MIC of carbapenem with/without inhibitor; assay type: cell-based; details: inhibitor 63 mg/L
Method: as §1

[6] = test system: K. pneumoniae 50732159 (No MBL); assay: Microbroth dilution MIC of meropenem with/without inhibitor; assay type: cell-based; details: inhibitor 63 mg/L
Method: as §1

[7] = test system: P. aeruginosa 50692172 (NDM-1); assay: as above; assay type: cell-based; details: inhibitor 63 mg/L
Method: as §1

[8] = test system: P. aeruginosa 50808021 (No MBL); assay: as above; assay type: cell-based; details: inhibitor 63 mg/L
Method: as §1

[9] = test system: resistant gram-negative MBL-based bacteria; assay: MICx: adjuvant concentration giving carbapenem MIC ≤ 2 mg/L; assay type: cell-based; details: lowest concentration of compound X that results in a MIC value of ≤ 2 mg/L for carbapenem antibiotics
Method in brief: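 Broth microdilution in MH broth; 0.5 McFarland suspension diluted 1:100 to a final inoculum of 3-7×10^5 CFU/ml. Compounds tested as 2-fold dilutions in MH broth. Carbapenemase/ESBL strains were pre-grown overnight at 37 °C on agar containing 100 mg/L ampicillin.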

VIM-2 = VIM-2 (Escherichia coli, UniProt Q5U7L7); assay type: biochemical; details: purified VIM-2, PD-10 column
Method: The eluent used was Chelex-treated HEPES 50 mM buffer, pH 7.5. […] In all experiments, 16 aliquots of 250 μL were taken from the PD-10 column runsout and enzyme activity was analysed. Enzyme activity was measured by adding Nitrocefin as a reporter substrate (final concentration of 50 μM).
To investigate if more extreme time-dependent and concentration-dependent conditions could restore enzyme activity, aliquots having final concentrations of 30 nM column-treated enzyme and 1000 μM Zn^2+ on ice and at room temperature over prolonged time.

neurons = details: Canzoniero et al.; cited from earlier work

SMILES: C[C@@H](N)C(=O)N[C@H](C)C(=O)NCCc1ccc(NC(=O)c2ccc(CN(Cc3ccccn3)Cc3ccccn3)nc2)cc1 [Example 195, N-(4-(2-((R)-2-((R)-2-aminopropanamido)propanamido)ethyl)phenyl)-6-((bis(pyridin-2-ylmethyl)amino)methyl)nicotinamide hydrochloride]
- MIC ([1]; Klebsiella pneumoniae, read-out: MIC of MEM in the presence of inhibitor): 0.125 µg/mL
- IC50 (human hepG2 cells; Homo sapiens, HepG2, 24 h): > 1000 µM
- MIC meropenem + 25 mg/L Example 195 (C. freundii (NDM)): 0.06 µg/mL
- MIC meropenem + 25 mg/L Example 195 (C. freundii (NDM-1)): 0.125 µg/mL
- MIC meropenem + 25 mg/L Example 195 (E. cloacae (VIM)): <0.03 µg/mL
- MIC meropenem + 25 mg/L Example 195 (E. coli (VIM-1)): <0.03 µg/mL
- MIC meropenem + 25 mg/L Example 195 (K. pneumoniae (NDM)): 0.06 µg/mL
- MIC meropenem + 25 mg/L Example 195 (K. pneumoniae (NDM-7)): <0.03 µg/mL
- MIC meropenem + 25 mg/L Example 195 (K. pneumoniae (VIM)): 0.125 µg/mL
- MIC meropenem + 25 mg/L Example 195 [2]: 1 µg/mL
- MIC meropenem + 25 mg/L Example 195 (P. mirabilis (NDM-1)): 0.125 µg/mL
- MIC meropenem + 25 mg/L Example 195 (P. stuartii (NDM)): 0.25 µg/mL
- MIC meropenem + 25 mg/L Example 195 (P. stuartii (NDM-1)): 0.125 µg/mL
- RF - no of colonies (K. pneumoniae K66-45): 163 colonies
- storage time after which the activity was absent [3]: 8 months
- storage time at which a loss of activity was observed [3]: 5 months
- Relative weight of mice ([4]; Day 1, treatment 4 mg/kg intraperitoneally): 100 ± 0%
- Relative weight of mice ([4]; Day 8, treatment 8 mg/kg): 98 ± 5%
- Relative weight of mice ([4]; Day 16, treatment 16 mg/kg): 103 ± 3%
- Relative weight of mice ([4]; Day 22, treatment 32 mg/kg): 103 ± 3%
- Relative weight of mice ([4]; Day 29, treatment 64 mg/kg): 106 ± 6%
- Relative weight of mice ([4]; Day 36, treatment 120 mg/kg): 110 ± 8%
- Relative weight of mice ([4]; Day 43, no injection, reporting): 110 ± 8%

SMILES: c1ccc(CN(CCN(Cc2ccccn2)Cc2ccccn2)Cc2ccccn2)nc1 [TPEN, N,N,N′,N′-tetrakis(2-pyridylmethyl) ethylenediamine, reference compound]
- Meropenem activity in presence of inhibitor ([1]; inhibitor 63 mg/L, K. pneumoniae K66-45 NDM-1): ≤0.5 mg/L
- Meropenem activity in presence of inhibitor [5]: 1 mg/L
- Meropenem activity in presence of inhibitor [6]: ≤0.064 mg/L
- Meropenem activity in presence of inhibitor [7]: ≤0.5 mg/L
- Meropenem activity in presence of inhibitor [8]: 64 mg/L
- MICx [9]: 15 µM
- IC50 (human hepG2 cells; human hepG2 cells, 24 hours, AlamarBlue, 8 replicates, read-out: IC50): 7.1 µM
- IC50 (human hepG2 cells; human hepG2 cells, read-out: IC50h): 7 µM
- irreversibility of VIM-2 inhibition (VIM-2): irreversibly inhibited
- EC50 (neurons): ~5 µM
